Experimental data from patent US9938271B2, “Inhibitors of human immunodeficiency virus replication” (VIIV HEALTHCARE UK (NO. 5) LIMITED, priority 2014, dated 2018).

Tested on: NL-RLuc virus (recombinant HIV NL4-3 with Renilla Luciferase gene) in MT-2 cells
Experiment: Inhibition of HIV replication (NL-RLuc luciferase reporter virus in MT-2 cells)
Format: cell-based
Text: Inhibition of HIV Replication:
A recombinant NL-RLuc proviral clone was constructed in which a section of the nef gene from NL4-3 was replaced with the Renilla Luciferase gene. This virus is fully infectious and can undergo multiple cycles of replication in cell culture. In addition, the luciferous reporter provides a simple and easy method for quantitating the extent of virus growth and consequently, the antiviral activity of test compounds. The plasmid pNLRLuc contains the proviral NL-Rluc DNA cloned into pUC 18 at the PvuII site. The NL-RLuc virus was prepared by transfection of 293T cells with the plasmid pNLRLuc. Transfections were performed using the LipofectAMINE PLUS kit from Invitrogen (Carlsbad, Calif.) according to the manufacturer and the virus generated was titered in MT-2 cells. For susceptibility analyses, the titrated virus was used to infect MT-2 cells in the presence of compound, and after 5 days of incubation, cells were processed and quantitated for virus growth by the amount of expressed luciferase. Assay media was RPMI 1640 supplemented with 10% heat inactivated fetal bovine serum (FBS), 100 units/ml penicillin G/100 units/ml streptomycin, 10 mM HEPES buffer pH 7.55 and 2 mM L-glutamine. The results from at least 2 experiments were used to calculate the EC50 values. Luciferase was quantitated using the Dual Luciferase kit from Promega (Madison, Wis.). Susceptibility of viruses to compounds was determined by incubation in the presence of serial dilutions of the compound. The 50% effective concentration (EC50) was calculated by using the exponential form of the median effect equation where (Fa)=1/[1+(ED50/drug conc.)^m] (Johnson V A, Byington R T. Infectivity Assay. In Techniques in HIV Research. ed. Aldovini A, Walker B D. 71-76. New York: Stockton Press. 1990). Activity equal to A refers to a compound having an EC50≤100 nM, while B and C denote compounds having an EC50 between 100 nM and 1 uM (B) or >1 uM (C).

[1] = MT2, 120 h, MT-2 cells infected with NL-RLuc virus, 5 days of incubation, luciferase readout, 10% FBS

Compound	EC50 ({}) [nM]	EC50 [1] [nM]
Cc1cn2cc(-c3cccc(-c4ccc(F)cc4)c3)nc2c(-c2cc(F)c3c(c2C)CCCO3)c1[C@H](OC(C)(C)C)C(=O)O (single isomer, unassigned) [Example 1]	16	–
Cc1cn2cc(-c3cccc(-c4ccc(F)cc4)c3)nc2c(-c2cc(F)c3c(c2C)CCCO3)c1[C@H](OC(C)(C)C)C(=O)O (single isomer, unassigned) [Example 2]	187	–
Cc1ccccc1-c1cccc(-c2cn3cc(C)c([C@H](OC(C)(C)C)C(=O)O)c(-c4cc(F)c5c(c4C)CCCO5)c3n2)c1 (single isomer, unassigned) [Example 5]	34	–
Cc1ccccc1-c1cccc(-c2cn3cc(C)c([C@H](OC(C)(C)C)C(=O)O)c(-c4cc(F)c5c(c4C)CCCO5)c3n2)c1 (single isomer, unassigned) [Example 6]	560	–
Cc1cn2cc(-c3cccc(-c4ccccc4F)c3)nc2c(-c2cc(F)c3c(c2C)CCCO3)c1[C@H](OC(C)(C)C)C(=O)O [Example 3, (2S)-2-(tert-Butoxy)-2-(8-(8-fluoro-5-methylchroman-6-yl)-2-(2′-fluoro-[1,1′-biphenyl]-3-yl)-6-methylimidazo[1,2-a]pyridin-7-yl)acetic acid]	–	11
Cc1cn2cc(-c3cccc(-c4ccccc4F)c3)nc2c(-c2ccccc2F)c1[C@H](OC(C)(C)C)C(=O)O [Example 4, (2S)-2-(tert-Butoxy)-2-(2-(2′-fluoro-[1,1′-biphenyl]-3-yl)-8-(2-fluorophenyl)-6-methylimidazo[1,2-a]pyridin-7-yl)acetic acid]	–	265
Cc1cn2cc(-c3cccc(-c4ccccc4F)c3)nc2c(-c2ccc3c(c2)CCCO3)c1[C@H](OC(C)(C)C)C(=O)O [Example 7, (S)-2-(tert-Butoxy)-2-(8-(chroman-6-yl)-2-(2′-fluoro[1,1′-biphenyl]-3-yl)-6-methylimidazo[1,2-a]pyridin-7-yl)acetic acid]	–	19
Cc1cn2cc(-c3cccc(-c4ccc(F)c(F)c4F)c3)nc2c(-c2ccc3c(c2)CCCO3)c1[C@H](OC(C)(C)C)C(=O)O [Example 8, (S)-2-(tert-Butoxy)-2-(8-(chroman-6-yl)-6-methyl-2-(2′,3′,4′-trifluoro-[1,1′-biphenyl]-3-yl)imidazo[1,2-a]pyridin-7-yl)acetic acid]	–	10
Cc1cn2cc3nc2c(c1[C@H](OC(C)(C)C)C(=O)O)N1CCC(C)(CC1)OCCCC[C@H](C)Oc1cc(F)ccc1-c1cccc-3c1 [Example 9, (2S)-2-(tert-Butoxy)-2-[(22S)-18-fluoro-4,22,28-trimethyl-21,27-dioxa-1,6,8-triazahexacyclo[26.2.2.1^6,9.1^10,14.0^2,7.0^15,20]tetratriaconta-2,4,7,9(34),10(33),11,13,15,17,19-decaen-3-yl]acetic acid]	–	36
Cc1cn2c(C(C)(C)C)c3nc2c(c1[C@H](OC(C)(C)C)C(=O)O)N1CCC(C)(CC1)OCCCC[C@H](C)Oc1cc(F)ccc1-c1cccc-3c1 [Example 10, (2S)-2-(tert-Butoxy)-2-[(22S)-34-tert-butyl-18-fluoro-4,22,28-trimethyl-21,27-dioxa-1,6,8-triazahexacyclo[26.2.2.1^6,9.1^10,14.0^2,7.0^15,20]tetratriaconta-2,4,7,9 (34),10(33),11,13,15,17,19-decaen-3-yl]acetic acid]	–	148
